The experiment has as its target Genome polyprotein (dengue virus type 2, UniProt P29990). In kind it is functional, Thailand/16681/1984.

As usually defined, the IC50 is the concentration that gives 50% inhibition. Low readings indicate inhibition by little substance, high ones a need for much substance.

Each structure is given as a SMILES string. Several values for one entry are separate records, joined by “and”; a condition that tells them apart may be missing. Equal values may be shown once.

Genome polyprotein, sequence (P29990 1346-1475 limits assumed): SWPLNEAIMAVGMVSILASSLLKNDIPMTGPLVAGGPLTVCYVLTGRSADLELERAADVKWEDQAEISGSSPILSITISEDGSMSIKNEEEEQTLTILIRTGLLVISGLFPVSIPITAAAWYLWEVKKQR
Genome polyprotein, sequence (P29990 1476-2093 limits assumed): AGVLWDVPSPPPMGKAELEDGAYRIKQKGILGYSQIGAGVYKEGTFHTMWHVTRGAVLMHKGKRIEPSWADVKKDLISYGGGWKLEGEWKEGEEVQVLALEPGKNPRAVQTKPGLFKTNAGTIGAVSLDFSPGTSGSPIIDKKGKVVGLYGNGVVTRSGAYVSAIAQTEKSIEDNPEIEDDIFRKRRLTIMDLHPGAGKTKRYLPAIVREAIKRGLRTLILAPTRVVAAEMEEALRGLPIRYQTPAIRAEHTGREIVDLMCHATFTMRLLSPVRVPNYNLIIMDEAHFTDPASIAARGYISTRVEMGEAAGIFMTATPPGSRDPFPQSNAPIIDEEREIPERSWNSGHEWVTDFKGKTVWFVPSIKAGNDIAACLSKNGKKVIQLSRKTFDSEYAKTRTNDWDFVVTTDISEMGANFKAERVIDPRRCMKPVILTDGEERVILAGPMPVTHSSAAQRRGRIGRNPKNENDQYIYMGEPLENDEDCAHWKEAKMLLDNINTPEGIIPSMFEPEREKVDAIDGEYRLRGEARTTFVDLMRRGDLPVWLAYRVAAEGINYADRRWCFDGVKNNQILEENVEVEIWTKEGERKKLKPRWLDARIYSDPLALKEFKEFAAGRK

Regarding `CCCCCNC(=O)c1cc(Cl)ccc1NS(=O)(=O)c1ccc(Oc2ccccc2Cl)cc1`, the IC50 is greater than 99.5 µM. The compound `O=C(O)c1cc(Cl)ccc1NS(=O)(=O)c1ccc(OCc2cncnc2)cc1` showed an IC50 greater than 99.5 µM. The figure for `CCn1c(=O)c(N2CC[C@H](c3nncs3)C2)nc2ccccc21` is greater than 99.5 µM; for `NCc1cccc(NC(=O)[C@H](NS(=O)(=O)CC2CCC2)c2ccc(OCc3ccccc3)cc2)c1` it is greater than 99.5 µM; for `NCc1ccc(C[C@H](NC(=O)OCc2ccccc2)C(=O)Nc2cccc(CN)c2)cc1` it is greater than 99.5 µM. With `Cc1c(C(=O)Nc2cccc(-c3ccc(=O)[nH]n3)c2)cc(C2CC2)n1C` the figure was greater than 99.5 µM. On to `NCc1cccc(NC(=O)c2ccc(OCC(F)(F)F)c(NC(=O)OCc3ccccc3)c2)c1`, for which the IC50 is greater than 99.5 µM. The figure for `O=C(O)c1cc(Cl)ccc1NS(=O)(=O)c1ccc(-c2ccccc2F)cc1` is 10.1 µM; for `NC[C@H]1C[C@@H](NC(=O)[C@@H](NC(=O)OCc2ccccc2)c2ccc(OCc3ccccc3)cc2)C1` it is greater than 99.5 µM. With `O=C(O)c1cc(Cl)ccc1NS(=O)(=O)c1ccc(-c2cn[nH]c2)cc1` the figure was greater than 99.5 µM; with `NCc1ccc(CNC(=O)c2cc(Cl)cc(NC(=O)OCc3ccccc3)c2)cc1`, greater than 99.5 µM; with `COc1ccc(-n2nnnc2SC(F)F)cc1`, greater than 99.5 µM. The figure for `C[C@@H](NC(=O)c1cc(Cl)ccc1NS(=O)(=O)c1ccc(Oc2ccccc2Cl)cc1)C(=O)O` is greater than 99.5 µM; for `NCCCc1ccc(C(=O)N2CC(c3cccc(Br)c3)C2)cc1` it is greater than 99.5 µM; for `CCOC1CC(S(=O)(=O)N[C@H](C(=O)Nc2cccc(CN)c2)c2ccc(OCc3ccccc3)cc2)C1` (stereo partly drawn) it is greater than 99.5 µM. For `CCN1CC[C@@H](COc2ccc([C@@H](NC(=O)OCc3ccccc3)C(=O)Nc3cccc(CN)c3)cc2)C1`, the IC50 is greater than 99.5 µM. With `Nc1ccc(/C=C/C(=O)C(=O)N2CCN(CCc3ccccc3)CC2)cc1` the figure was greater than 99.5 µM. As for `CS(=O)(=O)NCc1ccc(CNC(=O)[C@@H](NC(=O)OCc2ccccc2)c2ccc(OCc3ccccc3)cc2)cc1`, the IC50 was greater than 99.5 µM. The figure for `O=C(O)c1ncc(F)cc1NS(=O)(=O)c1ccc(Oc2ccccc2Cl)cc1` is 61.7 µM. As for `COC(=O)[C@@H](C)NC(=O)c1cc(Cl)ccc1NS(=O)(=O)c1ccc(Oc2ccccc2Cl)cc1`, the IC50 was determined as 39 µM. This IC50 is about 1.6-fold lower than that of the compound before. With `Cc1cc(NC(=O)OCc2ccccc2)cc(C(=O)Nc2cccc(CN)c2)c1C` the figure was greater than 99.5 µM. `OC[C@H]1CCN(c2cnc3ccccc3n2)C1` registered a concentration for half-maximal inhibition (IC50) greater than 99.5 µM. The figure for `CCc1ccccc1-c1ccc([C@@H](NC(=O)OCc2ccccc2)C(=O)Nc2cccc(CN)c2)cc1` is 9.17 µM; for `CN1CCN(Cc2ccccc2CNC(=O)[C@@H](NC(=O)OCc2ccccc2)c2ccc(OCc3ccccc3)cc2)CC1` it is greater than 99.5 µM. The figure for `CCn1nccc1-c1cn(CC)c(=O)c(N2CC[C@@H](CO)C2)n1` is greater than 99.5 µM; for `NCc1cccc(NC(=O)[C@H](NS(=O)(=O)c2cccc(Cl)c2)c2ccc(OCc3ccccc3)cc2)c1` it is greater than 99.5 µM. The figure for `CN1CC[C@H](C2CCN(S(=O)(=O)c3cc(F)cc(C(=O)O)c3)CC2)C1` is greater than 99.5 µM; for `NCc1cccc(NC(=O)[C@H](NS(=O)(=O)c2ccc(Oc3ccccc3Cl)cc2)c2ccc(OCc3ccccc3)cc2)c1` it is greater than 99.5 µM; for `Cc1c[nH]nc1CN1CCC(c2cscn2)CC1` it is greater than 99.5 µM. `NCc1cccc(NC(=O)[C@@H](NC(=O)OCc2ccccc2)c2ccc(Cl)cc2)c1` had a 50% inhibitory concentration (IC50) greater than 99.5 µM.

`O=C1C[C@@H](CNC(=O)c2cc(Cl)ccc2NS(=O)(=O)c2ccc(Oc3ccccc3Cl)cc2)CN1` yielded a concentration for half-maximal inhibition (IC50) of 79.3 µM. This lies in the double-digit micromolar range. The figure for `NCc1cccc(NC(=O)[C@H](NC(=O)c2ccns2)c2ccc(OCc3ccccc3)cc2)c1` is greater than 99.5 µM. The figure for `CCn1nccc1S(=O)(=O)N[C@@H](C(=O)Nc1cccc(CN)c1)c1ccc(OCc2ccccc2)cc1` is greater than 99.5 µM; for `Cn1nc(C2CCN(C(=O)c3ccccc3CSc3nnc[nH]3)CC2)cc1O` it is greater than 99.5 µM.

The compound `O=C(N[C@@H](C(=O)Nc1ccncc1)c1ccc(OCc2ccccc2)cc1)OCc1ccccc1` registered an IC50 greater than 99.5 µM. With `NS(=O)(=O)c1cc(F)c(Cl)cc1N1CCN(c2ccnc(O)c2)CC1` the figure was greater than 99.5 µM; with `O=C(O)c1cc(Cl)ccc1S(=O)(=O)N[C@H]1CC[C@H](Oc2cnccn2)CC1`, greater than 99.5 µM; with `Cc1c(CN)c(C(=O)Nc2cc(-c3cccnc3)ccn2)nn1C`, greater than 99.5 µM. `c1cc(CN2CCC(c3cscn3)CC2)[nH]n1` registered an IC50 greater than 99.5 µM. With `NCc1cccc(NC(=O)[C@H](NC(=O)OCc2ccccc2)c2cccc(-c3cncc(F)c3)c2)c1` the figure was greater than 99.5 µM. With `c1ccc2c(CN[C@H]3CCc4c([nH]c5ccccc45)C3)n[nH]c2c1` the figure was greater than 99.5 µM; with `Cn1ccnc1C(=O)N[C@H](C(=O)Nc1cccc(CN)c1)c1ccc(OCc2ccccc2)cc1`, greater than 99.5 µM; with `O=C(NCc1ccccc1)c1cc(O)ccc1NS(=O)(=O)c1ccc(Oc2ccccc2Cl)cc1`, 86.4 µM.

Compound `O=C(N[C@@H](C(=O)NCc1cn[nH]c1)c1ccc(OCc2ccccc2)cc1)OCc1ccccc1` came in with an IC50 greater than 99.5 µM.

In the case of `O=C(O)c1sc2cccnc2c1Br`, the IC50 is greater than 99.5 µM. With `CCn1c(=O)c(N2C[C@H]3OCCN(C(C)=O)[C@H]3C2)nc2ccccc21` the figure was greater than 99.5 µM; with `O=S(=O)(Nc1ccc(Oc2ccccc2Cl)cc1)c1c[nH]c2ccc(Cl)cc12`, greater than 99.5 µM. Regarding `O=C1CC[C@H]2[C@H](CCN2C(=O)c2ccc3c(c2)CNC3)N1`, the IC50 is greater than 99.5 µM. `NCc1ccc(Oc2ccc(S(=O)(=O)Nc3ccc(Cl)cc3C(=O)NCC(F)(F)F)cc2)cc1` displayed an IC50 greater than 99.5 µM. The figure for `COc1ncccc1S(=O)(=O)N[C@H](C(=O)Nc1cccc(CN)c1)c1ccc(OCc2ccccc2)cc1` is greater than 99.5 µM. With `Cc1ccc2c(c1)CN(C(=O)c1ccc(C3(CN)CC3)cc1)C(C)(C)C2` the figure was greater than 99.5 µM. The figure for `COc1cccc(-c2ccc([C@@H](NC(=O)OCc3ccccc3)C(=O)Nc3cccc(CN)c3)cc2)c1` is 9.12 µM and 6.13 µM and 6.64 µM. `O=C(O)c1cc2c(cc1NS(=O)(=O)c1ccc(F)cc1)CCC2` showed an IC50 greater than 99.5 µM.

Turning to `O=C(O)c1cc(Cl)ccc1S(=O)(=O)N[C@H]1CCn2c(nnc2C(F)(F)F)C1`, the IC50 is greater than 99.5 µM. With `O=C(Nc1cc(Cl)cc(C(=O)Nc2ccc3c(c2)CNCC3)c1)OCc1ccccc1` the figure was 57.8 µM; with `CCn1c(=O)c(N2C[C@@H](CO)[C@H](c3cncn3C)C2)nc2ccccc21`, greater than 99.5 µM.

The compound `CCc1cc(F)ccc1CC(=O)N1CCCc2cc(CCN)ccc21` registered a concentration for half-maximal inhibition (IC50) greater than 99.5 µM. The figure for `Cc1ccc([C@@H](NC(=O)OCc2ccccc2)C(=O)Nc2cccc(CN)c2)cc1C(F)(F)F` is greater than 99.5 µM.

`NCc1cccc(NC(=O)C[C@@H](NC(=O)OCc2ccccc2)c2ccc(Cl)c(Br)c2)c1`: the IC50 was 12.4 µM and 12.2 µM.

Compound `COC(=O)C1(S(=O)(=O)N[C@H](C(=O)Nc2cccc(CN)c2)c2ccc(OCc3ccccc3)cc2)CCC1` had an IC50 greater than 99.5 µM. `CCc1ccc(NS(=O)(=O)c2ccc(Oc3ccccc3Cl)cc2)c(C(=O)NC)c1` showed a half-inhibitory concentration (IC50) greater than 99.5 µM. `O=C(O)c1cc(Cl)ccc1S(=O)(=O)NC1CCN(c2nc(C3CC3)cc(C(F)(F)F)n2)CC1` gave an IC50 of 15.5 µM.

In the case of `O=C(O)[C@H]1CCCC[C@@H]1NS(=O)(=O)c1ccc(Oc2ccccc2Cl)cc1`, the IC50 is greater than 99.5 µM. The figure for `NCc1cccc(NC(=O)c2cc(Cl)cc(CNC(=O)OCc3ccccc3)c2)c1` is 84.3 µM; for `CC(C)(CO)NC(=O)c1cc(Cl)cc(NC(=O)c2cc(Cl)ccc2O)c1` it is greater than 99.5 µM.

With `N#Cc1cc(F)cc(N2CC[C@H](CO)C2)c1`, the 50% inhibitory concentration (IC50) was greater than 99.5 µM.

`Nc1ccc(CNC(=O)[C@@H](NC(=O)OCc2ccccc2)c2ccc(OCc3ccccc3)cc2)nc1` returned an IC50 greater than 99.5 µM.

In turn, `CC(C)[C@@H]1[C@H](C(=O)Nc2cccc(CN)c2)CCN1C(=O)OCc1ccccc1` returned an IC50 greater than 99.5 µM. With `O=S(=O)(c1cccs1)N1CCN(CC=Cc2ccccc2)CC1` the figure was greater than 99.5 µM; with `O=C(O)c1cc(Cl)ccc1NS(=O)(=O)c1ccc(OCc2ccncc2)cc1`, greater than 99.5 µM. For `Cc1cnc(Oc2ccc(S(=O)(=O)Nc3ccc(Cl)cc3C(=O)O)cc2)cn1`, the IC50 is greater than 99.5 µM. With `Cc1nc(-c2ccc([C@@H](NC(=O)OCc3ccccc3)C(=O)Nc3cccc(CN)c3)cc2)cs1` the figure was greater than 99.5 µM; with `NCc1cccc(NC(=O)[C@@H](NC(=O)OCc2ccccc2)c2ccc(-c3cc4cccnc4s3)cc2)c1`, 6.07 µM. The figure for `NCc1cccc(NC(=O)[C@H](NC(=O)C2CCC2)c2ccc(OCc3ccccc3)cc2)c1` is greater than 99.5 µM; for `C[C@@H](O)CNC(=O)c1cc(Cl)ccc1NS(=O)(=O)c1ccc(Oc2ccccc2Cl)cc1` it is 56.6 µM. The figure for `CCn1c(=O)c(N2CC[C@H]3[C@H]2[C@H]3C(F)(F)F)nc2ccccc21` is greater than 99.5 µM; for `COC(=O)c1cc(Cl)ccc1NS(=O)(=O)c1ccc(Br)cc1` it is greater than 99.5 µM. `O=C1OCc2ccc(NC(=O)[C@H]3CCNC34CCCC4)cc21`: the concentration for half-maximal inhibition (IC50) is greater than 99.5 µM.

`O=C(Nc1ccc(Cl)cc1C(=O)O)c1ccc(Oc2ccccc2Cl)cc1` showed a 50% inhibitory concentration (IC50) of 42.5 µM. As to `CNC(=O)c1cccc(CCC(=O)Nc2cc(Cl)cc(C(=O)NC(C)(C)CO)c2)c1`, the IC50 was greater than 99.5 µM. With `c1cncc(CC2CN(Cc3n[nH]c4ccccc34)C2)c1` the figure was greater than 99.5 µM. With `CC[C@H]1CN(C(=O)c2ccc(C3(CN)CC3)cc2)Cc2ccccc21` the figure was greater than 99.5 µM. In turn, `Cc1ccc(C(=O)N[C@H](C(=O)Nc2cccc(CN)c2)c2ccc(OCc3ccccc3)cc2)s1` gave an IC50 of 97.7 µM. The figure for `CNc1nc2cc(-c3ccc4c(c3)C[C@H](N)C4)ccc2o1` is greater than 99.5 µM. The figure for `NCc1cccc(S(=O)(=O)Cc2cc(Cl)cc(NC(=O)OCc3ccccc3)c2)c1` is greater than 99.5 µM. With `c1cc2sccc2c(N2CCN(Cc3ccc4cn[nH]c4c3)CC2)n1` the figure was greater than 99.5 µM; with `CCn1c(=O)c(N2C[C@H](O)C3(CC3)C2)nc2ccccc21`, greater than 99.5 µM. For the compound `NC[C@H]1CC[C@H](CNC(=O)c2cc(Cl)cc(NC(=O)OCc3ccccc3)c2)CC1`, the IC50 is greater than 99.5 µM.
